Patent publication US9206124B2, “Treatment of drug-resistant cancer with 2-aryl-2-(3-indolyl) acetohydroxamates” (New Mexico Technical Research Foundation, priority 2013, dated 2015)

Tests used:
[1] = test system: Hs683 anaplastic oligodendroglioma cells; assay: MTT antiproliferative assay, Hs683; type: cell-based; conditions: Homo sapiens, Hs 683, 48 h treatment, ± SD, apoptosis-sensitive reference, read-out: GI50 in vitro, Hs683
Method: (§1) As part of the ongoing efforts aimed at identification of compounds active against cancer cells displaying resistance to proapoptotic agents, the selected 2-aryl-2-(3-indolyl)-acetohydroxamates were evaluated for in vitro growth inhibition against a panel of additional cancer cell lines including those resistant to various proapoptotic stimuli, such as human T98G and U87 glioblastoma and human A549 non-small-cell-lung cancer (NSCLC), as well as an apoptosis-sensitive tumor model, such as human Hs683 anaplastic oligodendroglioma, used as a reference. The data reveal that for the most part these compounds retain the single-digit antiproliferatve GI50 values in this challenging cancer cell panel.
(§2) Human cancer cell lines were obtained from the American Type Culture Collection (ATCC, Manassas, Va., USA), the European Collection of Cell Culture (ECACC, Salisbury, UK) and the Deutsche Sammlung von Mikroorganismen and Zellkulturen (DSMZ, Braunschweig, Germany). Human cervical adenocarcinoma HeLa cells were cultured in DMEM supplemented with 10% fetal bovine serum (FBS). Human mammary carcinoma MCF-7 cells were cultured in RPMI supplemented with 10% FBS. The U87 cells (ATCC HTB-14) were cultured in DMEM culture medium, while the A549 cells (DSMZ ACC107) were cultured in RPMI culture medium supplemented with 10% heat-inactivated FBS. The glioblastoma multiforme Hs683 (ATCC HTB-138) and the T98G (ATCC CRL-1690) cell lines were cultivated in DMEM supplemented with 10% FBS. The Human uterine sarcoma MES-SA and MES-SA/Dx5 cells were cultured in RPMI-1640 medium supplemented with 10% FBS with MES SA/Dx5 maintained in the presence of 500 nM Doxorubicin (Sigma). SKMEL-28 cells (ATCC HTB72) and U373 glioblastoma cells (ECACC 08061901) were cultured in RPMI culture medium supplemented with 10% heat-inactivated FBS. Cell culture media were supplemented with 4 mM glutamine (Lonza code BE17-605E), 100 μg/mL gentamicin (Lonza code 17-5182), and penicillin-streptomycin (200 units/ml and 200 μg/ml) (Lonza code 17-602E). Neurosphere culture GBM 031810 was established using known methods and maintained in Neurobasal medium (Invitrogen Carlsbad, Calif.) with B27 supplement (20 ul/ml; Invitrogen), Glutamax (10 ul/ml; Invitrogen), fibroblast growth factor-2 (20 ng/ml; Peprotech, Rocky Hill, N.J., USA), epidermal growth factor (20 ng/ml; Peprotech), heparin (32 IE/ml; Sigma Aldrich, St. Louis, Mo.), and penicillin-streptomycin (1×, Invitrogen). Growth factors and heparin were renewed twice weekly. All cell lines were cultured in T25 flasks, maintained and grown at 37° C., 95% humidity, 5% CO2.
(§3) Antiproliferative properties of the synthesized compounds were evaluated by the MTT assay. All compounds were dissolved in DMSO at a concentration of either 100 mM or 50 mM prior to cell treatment. The cells were trypsinized and seeded at 4×10^3 cells per well into 96-well plates. The cells were grown for 24 h, treated with compounds at concentrations ranging from 0.001 to 100 μM and incubated for 48 h in 200 μL media. 20 μL of MTT reagent in serum free medium (5 mg/mL) was added to each well and incubated further for 2 h. Media was removed and the resulting formazan crystals were re-solubilized in 200 μL of DMSO. A490 was measured using a Molecular Devices Thermomax plate reader. The experiments were performed in quadruplicate and repeated at least twice for each compound per cell line. Cells treated with 0.1% DMSO were used as a negative control; 1 μM phenyl arsine oxide (PAO) was used as a positive control.

[2] = test system: MES-SA/Dx5 MDR uterine sarcoma cells; assay: MTT antiproliferative assay, MDR MES-SA/Dx5; type: cell-based, human; conditions: Homo sapiens, MES-SA/Dx5; 48 h treatment, MTT, ± SD; MDR line; read-out: GI50 in vitro, MES-SA/Dx5
Method: (§4) Compared with the intrinsic drug resistance, as described above for such cancers as glioblastoma and melanoma, a large variety of tumors can also develop resistance to anticancer drugs resulting in MDR as explained previously. To assess whether the hydroxamates can overcome this resistance mechanism, selected hydroxamates were tested against MDR cells (Table 4). The MDR uterine sarcoma cell line MES-SA/Dx5 was utilized for this experiment. This cell line was established from the parent uterine sarcoma MES-SA, grown in the presence of increasing concentrations of doxorubicin and known to be resistant to a number of P-gp substrates.
as §2, §3
Selection of the MES-SA/Dx5 cell line was done according to W. G. Harker and B. I. Sikic, Cancer Res. 1985, p. 45, 4091. The cells were split and allowed to adhere overnight. […] The cells were maintained at this DOX concentration until their growth rate reached that of the untreated cells.

[3] = test system: MES-SA uterine sarcoma cells; assay: MTT antiproliferative assay, MES-SA; type: cell-based; conditions: Homo sapiens, 48 h treatment, ± SD, read-out: GI50 in vitro, MES-SA
Method: as §4, with “substrates. […] In contrast, there was only a small variation in the sensitivities of the two cell lines towards the hydroxamates indicating their potential to overcome clinical multi-drug resistance.” for “substrates.”
as §2, §3

U87 glioblastoma cells = assay: MTT antiproliferative assay, U87; type: cell-based, human
Method: as §1, §2, §3

T98G glioblastoma cells = assay: MTT antiproliferative assay, T98G; type: cell-based; conditions: Homo sapiens, 48 h treatment, ± SD, read-out: GI50 in vitro, T98G
Method: as §1, §2, §3

SKMEL-28 melanoma cells = assay: Quantitative videomicroscopy, SKMEL-28; type: cell-based, human; conditions: 25 μM
Method: To obtain insight into the effectiveness of 2-aryl-2-(3-indolyl)acetohydroxamates against apoptosis-resistant cancers, computer-assisted phase-contrast microscopy (quantitative videomicroscopy) was employed to observe the phenotypic morphological changes in cancer cells as they are treated with these compounds. […] Based on the phase contrast pictures obtained by means of quantitative videomicroscopy, a global growth ratio (GGR) was calculated, which corresponds to the ratio of the mean number of cells present in a given image captured in the experiment (in this case after 24, 48 and 72 h) to the number of cells present in the first image (at 0 h). The ratio obtained in the 3aafa-treated experiment was then divided by the ratio obtained in the control. […] Thus, the GGR calculations are consistent with the MTT colorimetric data and indicate that it is the cytostatic properties associated with the hydroxamates that are responsible for their antiproliferative effects against apoptosis-resistant cancer cells, at least at relevant concentrations (slightly above the GI50 values).
Human cancer cell lines were obtained from the American Type Culture Collection (ATCC, Manassas, Va., USA), the European Collection of Cell Culture (ECACC, Salisbury, UK) and the Deutsche Sammlung von Mikroorganismen and Zellkulturen (DSMZ, Braunschweig, Germany). […]

- GI50 [1]: 8.9 ± 0.4 µM
- GI50 [2]: 4 ± 1.1 µM
- GI50 [3]: 2 ± 0.2 µM
- GI50 (U87 glioblastoma cells; Homo sapiens, 48 h treatment, MTT, ± SD, read-out: GI50 in vitro, U87): 9.5 ± 0.3 µM
- GI50 (T98G glioblastoma cells): 36.4 ± 1.9 µM
Structure (SMILES): O=C(NO)C(c1ccccc1)c1c(-c2ccc3ccccc3c2)[nH]c2ccccc12 (centres unmarked) [Compound 3aafa]
- activity against cell populations resistant to proapoptotic agents, U87 (U87 glioblastoma cells; FIG. 3, increasing concentration): potent growth inhibitory properties against most of the cells
- phenotypic effect, SKMEL-28 (SKMEL-28 melanoma cells; slightly exceeding GI50, FIG. 4): inhibits cancer cell proliferation without inducing cell death
- global growth ratio (GGR), SKMEL-28 (SKMEL-28 melanoma cells; 72 h observation, treated/control): ca. 0.3
